Measurements reported in PubChem BioAssay AID248 (DTP/NCI, 2004).
Several values for one entry are separate records, joined by “and”; a condition that tells them apart may be missing. Equal entries are not always repeated. Inconclusive results and toxic doses are left out.

Tested on: L1210 leukemia ip in BDF1 mice, survival T/C
Assay: NCI In Vivo Anticancer Drug Screen. Data for tumor model L1210 Leukemia (intraperitoneal) in B6D2F1 (BDF1) mice
Details: endpoint: mean survival time, higher = longer survival
Summary of the method: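 Transplantable tumor model; survival measured in treated vs vehicle control mice. Value = treated/control.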

[1] = dose: 100.0 mg/kg/injection, schedule: Q04DX002 (ip), vehicle: Klucel (hydroxypropylcellulose) (HPC)
[2] = dose: 200.0 mg/kg/injection, schedule: Q04DX002 (ip), vehicle: Klucel (hydroxypropylcellulose) (HPC)
[3] = dose: 400.0 mg/kg/injection, schedule: Q04DX002 (ip), vehicle: Klucel (hydroxypropylcellulose) (HPC)
[4] = dose: 100.0 mg/kg/injection, schedule: Q01DX001 (ip), vehicle: carboxymethylcellulose (CMC)
[5] = dose: 200.0 mg/kg/injection, schedule: Q01DX001 (ip), vehicle: carboxymethylcellulose (CMC)
[6] = dose: 100.0 mg/kg/injection, schedule: Q01DX009 (ip), vehicle: saline with Tween-80
[7] = dose: 200.0 mg/kg/injection, schedule: Q01DX009 (ip), vehicle: saline with Tween-80
[8] = dose: 400.0 mg/kg/injection, schedule: Q01DX009 (ip), vehicle: saline with Tween-80
[9] = dose: 100.0 mg/kg/injection, schedule: Q01DX009 (ip), vehicle: Klucel (hydroxypropylcellulose) (HPC)
[10] = dose: 200.0 mg/kg/injection, schedule: Q01DX009 (ip), vehicle: Klucel (hydroxypropylcellulose) (HPC)
[11] = dose: 400.0 mg/kg/injection, schedule: Q01DX009 (ip), vehicle: Klucel (hydroxypropylcellulose) (HPC)

O=C(Nc1ccc(C2=NCC(O)CN2)cc1)c1ccc(C(=O)Nc2ccc(C3=NCC(O)CN3)cc2)c(Cl)c1 (centres undefined)
T/C (dose: 12.0 micrograms/kg/injection, schedule: Q01DX015 (ip), vehicle: water): 96 % of control
T/C (dose: 25.0 micrograms/kg/injection, schedule: Q01DX015 (ip), vehicle: water): 114 % of control
T/C (dose: 50.0 micrograms/kg/injection, schedule: Q01DX015 (ip), vehicle: water): 96 % of control
T/C (dose: 75.0 micrograms/kg/injection, schedule: Q01DX015 (ip), vehicle: water): 102 % of control

COc1ccc(/C=N\NC(=O)N/N=C/c2ccc(OC)c(Br)c2)cc1Br
T/C (dose: 50.0 mg/kg/injection, schedule: Q04DX002 (ip), vehicle: Klucel (hydroxypropylcellulose) (HPC)): 106 % of control
T/C [1]: 98 % of control and 103 % of control
T/C [2]: 88 % of control
T/C [3]: 91 % of control

S=c1nc[nH]c2c1ncn2C1CCCCO1 (centres undefined)
T/C (dose: 16.0 mg/kg/injection, schedule: Q01DX Z (ip), vehicle: carboxymethylcellulose (CMC)): 120 % of control
T/C (dose: 21.0 mg/kg/injection, schedule: Q01DX009 (ip), vehicle: saline): 103 % of control
T/C (dose: 36.0 mg/kg/injection, schedule: Q01DX009 (ip), vehicle: saline): 120 % of control
T/C (dose: 88.0 mg/kg/injection, schedule: Q01DX001 (ip), vehicle: saline): 112 % of control
T/C [4]: 124 % of control
T/C (dose: 100.0 mg/kg/injection, schedule: Q01DX009 (ip), vehicle: saline): 118 % of control
T/C (dose: 120.0 mg/kg/injection, schedule: Q01DX009 (ip), vehicle: saline): 107 % of control
T/C (dose: 125.0 mg/kg/injection, schedule: Q01DX Z (ip), vehicle: carboxymethylcellulose (CMC)): 94 % of control
T/C (dose: 133.0 mg/kg/injection, schedule: Q01DX001 (ip), vehicle: saline): 122 % of control
T/C (dose: 177.0 mg/kg/injection, schedule: Q01DX001 (ip), vehicle: carboxymethylcellulose (CMC)): 155 % of control
T/C (dose: 200.0 mg/kg/injection, schedule: Q01DX001 (ip), vehicle: saline): 155 % of control
T/C (dose: 267.0 mg/kg/injection, schedule: Q01DX001 (ip), vehicle: carboxymethylcellulose (CMC)): 159 % of control
T/C (dose: 600.0 mg/kg/injection, schedule: Q01DX001 (ip), vehicle: carboxymethylcellulose (CMC)): 150 % of control and 156 % of control
T/C (dose: 900.0 mg/kg/injection, schedule: Q01DX001 (ip), vehicle: carboxymethylcellulose (CMC)): 104 % of control
T/C (dose: 1350.0 mg/kg/injection, schedule: Q01DX001 (ip), vehicle: carboxymethylcellulose (CMC)): 96 % of control

O=C1c2ccccc2C(=O)N1CCCN1C(=O)c2ccccc2C1=O
T/C (dose: 100.0 mg/kg/injection, schedule: Q01DX001 (ip), vehicle: saline with Tween-80): 111 % of control
T/C (dose: 100.0 mg/kg/injection, schedule: Q04DX002 (ip), vehicle: gum acacia): 104 % of control
T/C (dose: 200.0 mg/kg/injection, schedule: Q01DX001 (ip), vehicle: saline with Tween-80): 102 % of control
T/C (dose: 200.0 mg/kg/injection, schedule: Q04DX002 (ip), vehicle: gum acacia): 96 % of control
T/C (dose: 400.0 mg/kg/injection, schedule: Q01DX001 (ip), vehicle: saline with Tween-80): 100 % of control
T/C (dose: 400.0 mg/kg/injection, schedule: Q04DX002 (ip), vehicle: gum acacia): 93 % of control

Cc1ccc(-c2nnc3c4ccccc4ccn23)cc1
T/C [4]: 93 % of control
T/C [5]: 93 % of control
T/C (dose: 400.0 mg/kg/injection, schedule: Q01DX001 (ip), vehicle: carboxymethylcellulose (CMC)): 91 % of control

O=S(=O)(Nc1ccc2c3c(cccc13)CC2)c1ccccc1
T/C [6]: 92 % of control
T/C [7]: 94 % of control
T/C [8]: 103 % of control

CCCCN=C(NC(=S)Nc1ccc(Cl)cc1)SCC
T/C (dose: 100.0 mg/kg/injection, schedule: Q04DX002 (ip), vehicle: saline with Tween-80): 95 % of control
T/C (dose: 200.0 mg/kg/injection, schedule: Q04DX002 (ip), vehicle: saline with Tween-80): 92 % of control
T/C (dose: 400.0 mg/kg/injection, schedule: Q04DX002 (ip), vehicle: saline with Tween-80): 95 % of control

Cc1ccc(/C=N/NC(=O)c2ccccc2NC(=O)c2ccccc2)cc1
T/C [9]: 105 % of control
T/C [10]: 97 % of control
T/C [11]: 95 % of control

Cc1cccc(C(O)c2cnc(C)n2Cc2ccccc2)c1 (centres undefined)
T/C (dose: 100.0 mg/kg/injection, schedule: Q01DX001 (ip), vehicle: Klucel (hydroxypropylcellulose) (HPC)): 90 % of control
T/C [9]: 100 % of control and 86 % of control
T/C [1]: 108 % of control and 89 % of control
T/C (dose: 100.0 mg/kg/injection, schedule: Q04DX003 (ip), vehicle: Klucel (hydroxypropylcellulose) (HPC)): 92 % of control
T/C (dose: 200.0 mg/kg/injection, schedule: Q01DX001 (ip), vehicle: Klucel (hydroxypropylcellulose) (HPC)): 100 % of control
T/C [10]: 97 % of control and 89 % of control
T/C [2]: 96 % of control
T/C (dose: 200.0 mg/kg/injection, schedule: Q04DX003 (ip), vehicle: Klucel (hydroxypropylcellulose) (HPC)): 96 % of control
T/C (dose: 400.0 mg/kg/injection, schedule: Q01DX001 (ip), vehicle: Klucel (hydroxypropylcellulose) (HPC)): 97 % of control
T/C [11]: 93 % of control and 97 % of control
T/C [3]: 93 % of control and 101 % of control
T/C (dose: 400.0 mg/kg/injection, schedule: Q04DX003 (ip), vehicle: Klucel (hydroxypropylcellulose) (HPC)): 94 % of control

COc1ccc(/C=N/Nc2c([N+](=O)[O-])cc(C)cc2[N+](=O)[O-])cc1
T/C [9]: 102 % of control
T/C [10]: 100 % of control
T/C [11]: 100 % of control

C[C@@H]1C[C@@]2(C)[C@@H](CC[C@@H]3[C@@H]2CC[C@]2(C)[C@@H](O)CC[C@@H]32)CC1=O
T/C (dose: 100.0 mg/kg/injection, schedule: Q01DX Z (sc), vehicle: steriod suspending solution): 105 % of control
T/C (dose: 200.0 mg/kg/injection, schedule: Q01DX Z (sc), vehicle: steriod suspending solution): 108 % of control
T/C (dose: 400.0 mg/kg/injection, schedule: Q01DX Z (sc), vehicle: steriod suspending solution): 105 % of control
T/C (dose: 800.0 mg/kg/injection, schedule: Q01DX Z (sc), vehicle: steriod suspending solution): 105 % of control

CCOc1cc(/C=N\NC(=O)CCCC(=O)N/N=C/c2ccc(O)c(OCC)c2)ccc1O
T/C [5]: 95 % of control

O=C(/C=C/c1ccc2c(c1)OCO2)c1cccc([N+](=O)[O-])c1
T/C [1]: 93 % of control
T/C [2]: 104 % of control
T/C [3]: 100 % of control

N#CCCP(=O)(CCC#N)CCCCCCP(=O)(CCC#N)CCC#N
T/C [6]: 90 % of control
T/C [7]: 90 % of control
T/C [8]: 89 % of control

CN=C(c1ccc(NC(=O)c2ccc(C(=O)Nc3ccc(C(=NC)N(C)C(C)=O)cc3)cc2)cc1)N(C)C(C)=O
T/C (dose: 4.0 mg/kg/injection, schedule: Q01DX Z (ip), vehicle: carboxymethylcellulose (CMC)): 98 % of control
T/C (dose: 6.0 mg/kg/injection, schedule: Q01DX Z (ip), vehicle: carboxymethylcellulose (CMC)): 104 % of control
T/C (dose: 8.0 mg/kg/injection, schedule: Q01DX Z (ip), vehicle: carboxymethylcellulose (CMC)): 90 % of control
T/C (dose: 10.0 mg/kg/injection, schedule: Q01DX Z (ip), vehicle: carboxymethylcellulose (CMC)): 101 % of control
T/C (dose: 12.5 mg/kg/injection, schedule: Q01DX Z (ip), vehicle: carboxymethylcellulose (CMC)): 110 % of control
T/C (dose: 50.0 mg/kg/injection, schedule: Q01DX Z (ip), vehicle: carboxymethylcellulose (CMC)): 87 % of control

O=[N+]([O-])C1(CO)COC(c2ccccc2)OC1 (centres undefined)
T/C (dose: 100.0 mg/kg/injection, schedule: Q01DX009 (ip), vehicle: water): 91 % of control
T/C (dose: 100.0 mg/kg/injection, schedule: Q04DX003 (ip), vehicle: saline with Tween-80): 111 % of control
T/C (dose: 200.0 mg/kg/injection, schedule: Q01DX009 (ip), vehicle: water): 98 % of control
T/C (dose: 200.0 mg/kg/injection, schedule: Q04DX003 (ip), vehicle: saline with Tween-80): 108 % of control
T/C (dose: 400.0 mg/kg/injection, schedule: Q01DX009 (ip), vehicle: water): 92 % of control
T/C (dose: 400.0 mg/kg/injection, schedule: Q04DX003 (ip), vehicle: saline with Tween-80): 95 % of control
